According to the NIST ThermoML archive (doi:10.1016/j.tca.2014.06.017):
± gives the expanded uncertainty stated by the source.

Conditions: Crystal; DTA

Compound: OC[C@@H](O)[C@@H](O)[C@H](O)[C@H](O)CO [D-mannitol]
- Normal melting temperature: 162 ± 11 °C
